Measurements published in patent US12241902B2, “Probes for detection of copper” (The Regents of the University of California, priority 2019, dated 2025).

Key:
[1] = test system: labile Cu(I) pools in HEK 293T cells; test: Ratiometric confocal fluorescence imaging of labile Cu(I) in HEK 293T cells; assay type: cell-based, Human
Protocol: (A) Confocal fluorescence microscopy images of HEK 293T cells pretreated with solvent vehicle control or varying concentrations of CuCl2 in complete medium for 18 h. The cells were then washed with PBS, incubated with FCP-1 (5 μM) in DPBS for 45 min and then imaged. (B) Average cellular ratiometric emission ratios, represented by Fgreen/Forange, as determined from imaging experiments in (A) performed in triplicate. (C) Confocal fluorescence microscopy images of HEK 293T cells pretreated with solvent vehicle control or BCS (100 μM) in complete medium for 18 h. The cells were then washed with PBS, incubated with FCP-1 (5 μM) in DPBS for 45 min and then imaged. (D) Average cellular ratiometric emission ratios of FCP-1, Fgreen/Forange, as determined from experiments in (C) performed in triplicate. […] (E) ICP-MS measurement to determine total cellular ^63Cu levels in HEK293T cells under copper supplementation and depletion relative to the control (with normalization of different cell numbers by total cellular ^31P level). Error bars denote standard derivation (SD; n=3). *p<0.05, **p<0.01, ***p<0.001, ****p<0.0001 and *****p<0.00001.
Cell culture. Following cell cultures were grown: Human embryonic kidney (HEK 293T) cells were maintained in Dulbecco's Modified Eagle Medium (DMEM) supplemented with 10 vol % fetal bovine serum (FBS), 1 vol % GlutaMax (Gibco) and 1 vol % non-essential amino acids (NEAA, Gibco). Ctrl1^+/+ and Ctr1^−/− MEF cells were maintained in DMEM with 10 vol % FBS, 1 vol % non-essential amino acids, 1 vol % sodium pyruvate and 0.1 vol % 2-mercaptoethanol or DMEM supplemented with 10 vol % FBS and 1× Penicillin-Streptomycin. Human cervical epithelial carcinoma (HeLa) was maintained in DMEM medium supplemented with 1 vol % GlutaMAX and 10 vol % FBS. […]
Confocal fluorescence microscopy imaging. For confocal fluorescence imaging experiments of HEK293T, MEF Ctr1^+/+ and Ctr1^−/− and HeLa cells, the cells were plated on 8-well Lab Tek borosilicate chambered coverglass slides (Nunc), and allowed to grow to ca. 60% confluency before performing the cell imaging experiments. […] For quantification, a threshold value was set as background and the average intensity of the whole image was measured by ImageJ. […]
Given the metal and oxidation state-selective and sensitive response of FCP-1 to Cu(I), this probe was examined for ratiometric fluorescence imaging of labile Cu(I) pools in living cells. […] The observed increases and decreases in labile Cu(I) levels upon copper supplementation (CuCl2) and copper depletion (BCS) treatments, respectively, as measured by FCP-1 imaging were supported by complementary ICP-MS measurements of total copper levels showing expected increases and decreases in the total copper pool (FIG. 9, panel C).

[2] = test system: labile Cu(I) in Ctr1^+/+ MEFs; test: Confocal fluorescence imaging of labile Cu(I) in Ctr1+/+ MEFs; assay type: cell-based, mouse
Protocol: (A) Confocal fluorescence microscopy images of Ctr1^+/+ MEFs and Ctr1^−/− MEFs treated with solvent control, CuCl2 (100 or 300 μM) or BCS (500 μM) in complete medium for 8 h, washed with complete medium and PBS, incubated with FCP-1 (5 μM) in DPBS for 45 min, and then imaged with λex=458 nm. (B) Average cellular ratiometric emission ratios of FCP-1, Fgreen/Forange, as determined from experiments performed in triplicate. (C) Total cellular ^63Cu levels were determined by ICP-MS experiments (with normalization of different cell numbers by total cellular ^31P level). (D) Confocal fluorescence microscopy images of Ctr1^+/+ MEFs and Ctr1^−/− MEFs incubated with FL-TPA (5 μM) in DPBS for 45 min. The cells were then imaged with λex=488 nm. (E) Average cellular fluorescence intensity of FL-TPA, FFL-TPA, determined from experiments performed in triplicate with λex=488 nm. Error bars denote SD (n=3). *p<0.05, **p<0.01 and ***p<0.001.
Cell culture. Following cell cultures were grown: Human embryonic kidney (HEK 293T) cells were maintained in Dulbecco's Modified Eagle Medium (DMEM) supplemented with 10 vol % fetal bovine serum (FBS), 1 vol % GlutaMax (Gibco) and 1 vol % non-essential amino acids (NEAA, Gibco). Ctrl1^+/+ and Ctr1^−/− MEF cells were maintained in DMEM with 10 vol % FBS, 1 vol % non-essential amino acids, 1 vol % sodium pyruvate and 0.1 vol % 2-mercaptoethanol or DMEM supplemented with 10 vol % FBS and 1× Penicillin-Streptomycin. Human cervical epithelial carcinoma (HeLa) was maintained in DMEM medium supplemented with 1 vol % GlutaMAX and 10 vol % FBS. All cells were incubated in 5% CO2 humidified air and subcultured at 80% confluence.
Confocal fluorescence microscopy imaging. For confocal fluorescence imaging experiments of HEK293T, MEF Ctr1^+/+ and Ctr1^−/− and HeLa cells, the cells were plated on 8-well Lab Tek borosilicate chambered coverglass slides (Nunc), and allowed to grow to ca. 60% confluency before performing the cell imaging experiments. The confocal imaging was performed with a Zeiss laser scanning microscope 710 with 20× or 63× oil-immersion objective lens using Zen 2009 software (Carl Zeiss). FCP-1 was excited with 458 nm with an Ar laser, and the emissions were collected using a META detector between 465 and 541 nm (Fgreen), and between 559 and 710 nm (Forange). DRAQ-5 was excited with a 633 nm He Ne laser, and its emission was collected using a META detector between 661 and 759 nm. Image analysis was performed using ImageJ, with ratiometric images generated by the Ratio Plus plugin of ImageJ. For quantification, a threshold value was set as background and the average intensity of the whole image was measured by ImageJ. All experiments were performed in triplicate, and statistical analyses were performed with a two-tailed Student's t-test (MS excel).
Having established that FCP-1 is sensitive to endogenous pools of labile Cu(I) under basal conditions and can respond to changes in labile Cu(I) pools upon pharmacological copper supplementation and/or depletion, the application of FCP-1 to visualize alterations in endogenous labile Cu(I) pools through genetic manipulation was explored. To this end, comparative FCP-1 imaging was performed in mouse embryonic fibroblast cells that are either Cu-replete (Ctr1^+/+ MEFs) or Cu-deficient (Ctr1^−/− MEFs) through knockout of the high-affinity copper transporter CTR1 (64-66).
Complementary ICP-MS measurements confirm that total copper levels in Ctr1^−/− MEFs are lower than Ctr1^+/+ MEFs (FIG. 12C). […]

In the case of CC[N+](CC)=c1ccc2c(-c3ccccc3C(=O)O)c3ccc(N4CCN(Cc5cccc(CN(Cc6ccccn6)Cc6cccc(COc7ccc8c(-c9ccccc9C(=O)OC)c9ccc(=O)cc-9oc8c7)n6)n5)CC4)cc3oc-2c1 [FCP-1], the “Fgreen/Forange ratio in copper-deficient cells compared to control” value ([1]; BCS 100 μM pretreatment, FCP-1 5 μM) was “statistically significant decrease”, the “Fgreen/Forange ratio in copper-supplemented cells over vehicle control” value ([1]; CuCl2 25-300 μM pretreatment, FCP-1 5 μM 45 min) was “statistically significant, dose-dependent increase” and the “cell viability by nuclear staining” value ([1]; FCP-1 5 μM, DRAQ-5 (FIGS. 10-11)) was “remained viable”. For the same molecule, the “cellular viability by nuclear stain DRAQ5” value ([2]; Ctr1+/+ MEFs (FIG. 13)) was “cellular viability was maintained”, the “Fgreen/Forange ratio after BCS” value ([2]; Ctr1+/+ MEFs, BCS) was “reduction in Fgreen/Forange ratio” and the “Fgreen/Forange ratio after CuCl2” value ([2]; Ctr1+/+ MEFs, varying concentrations of CuCl2) was “dose-dependent increase”. For the same molecule, the “Fgreen/Forange ratio, Ctr1+/+ MEFs compared to Ctr1−/− MEFs” value ([2]; basal, FCP-1 5 μM, p<0.01) was “higher Fgreen/Forange ratios”.
